Reference: article PMC5673977, “Transport Deficiency Is the Molecular Basis of Candida albicans Resistance to Antifungal Oligopeptides” (Frontiers in Microbiology, 2017)
Where a SMILES comes first, the peptide text is derived from it. [ ]: non-standard residue; d: D form. Nva = CCC[C@H](N)C(=O)O

What was measured:
[1] = test system: C. albicans SC5314; assay: Initial peptide uptake rate; format: cell-based, Candida albicans; details: SC 5314; cells grown in YNB-SG; 50 mM potassium phosphate buffer (pH 5.0 or 6.5) + 1% glucose, 30°C, 100 μM peptide, residual peptide by TNBS A420, slope 0- to 10-min
Experimental: (§1) Yeast cells grown exponentially in the YNB-SG medium were harvested by centrifugation (3000 ×g, 5 min), washed with 50 mM potassium phosphate buffer (pH 5.0 or 6.5), and suspended in the same buffer containing 1% glucose, to a final cell density corresponding to A660 ≅ 1.0. The cell suspension was incubated at 30°C. After 10 min, an oligopeptide solution was added, to give a final concentration of 100 μM. At that moment and at 5 min intervals thereafter, 2 mL samples of the cell suspension were withdrawn, immediately filtered through the Whatman GF/A filters and the filtrates were used to determine the residual peptide concentration. Then, the 1 mL portions of the filtrates were taken and combined with 1.25 mL aliquots of a solution containing 4% Na2B4O7 × 10 H2O and 0.8 mg mL^-1 of 2,4,6-trinitrobenzenesulfonate. The reaction was carried out at 37°C for 30 min. The A420 values were measured and the peptide concentration was read from the appropriate standard curve. Data were plotted as nanomoles of an oligopeptide, taken up by 1 mg (dry weight) of cells versus time. The initial uptake velocities were determined from the slopes of the linear part of the curves, in the 0- to 10-min region.

[2] = test system: C. albicans opt1Δ; assay: Initial peptide uptake rate; format: cell-based, Candida albicans; details: 50 mM potassium phosphate buffer (pH 5.0 or 6.5) + 1% glucose, 30°C, 100 μM peptide, TNBS A420, slope 0- to 10-min
Experimental: as §1

[3] = test system: C. albicans opt1–opt5Δ ptr2Δ ptr22Δ; assay: Initial peptide uptake rate; format: cell-based, Candida albicans; details: 50 mM potassium phosphate buffer (pH 5.0 or 6.5) + 1% glucose, 30°C, 100 μM peptide, TNBS A420, slope 0- to 10-min
Experimental: as §1

[4] = test system: C. albicans opt1–opt5Δ; assay: Initial peptide uptake rate; format: cell-based, Candida albicans; details: 50 mM potassium phosphate buffer (pH 5.0 or 6.5) + 1% glucose, 30°C, 100 μM peptide, TNBS A420, slope 0- to 10-min
Experimental: as §1

[5] = test system: C. albicans opt2Δ opt3Δ; assay: Initial peptide uptake rate; format: cell-based, Candida albicans; details: 50 mM potassium phosphate buffer (pH 5.0 or 6.5) + 1% glucose, 30°C, 100 μM peptide, TNBS A420, slope 0- to 10-min
Experimental: as §1

[6] = test system: C. albicans opt4Δ; assay: Initial peptide uptake rate; format: cell-based, Candida albicans; details: 50 mM potassium phosphate buffer (pH 5.0 or 6.5) + 1% glucose, 30°C, 100 μM peptide, TNBS A420, slope 0- to 10-min
Experimental: as §1

[7] = test system: C. albicans opt5Δ; assay: Initial peptide uptake rate; format: cell-based, Candida albicans; details: 50 mM potassium phosphate buffer (pH 5.0 or 6.5) + 1% glucose, 30°C, 100 μM peptide, TNBS A420, slope 0- to 10-min
Experimental: as §1

[8] = test system: C. albicans ptr2Δ ptr22Δ; assay: Initial peptide uptake rate; format: cell-based, Candida albicans; details: 50 mM potassium phosphate buffer (pH 5.0 or 6.5) + 1% glucose, 30°C, 100 μM peptide, TNBS A420, slope 0- to 10-min
Experimental: as §1

[9] = test system: peptidases present in cytoplasmic extracts obtained from NF1, NF2, NF3, LNF1, LNF2, LNF3, and SC 5314 cells; assay: Peptide cleavage rate in cell-free extract (Cd-ninhydrin); format: in vitro ADME, Candida albicans; details: pH 6.5, 30°C
Experimental: Yeast cells from the overnight culture in YNB-SG were harvested by centrifugation and washed with cold 25 mM potassium phosphate buffer (pH 6.5). Cells were then suspended in a minimal amount of the buffer and disrupted with the French press. The resulting suspension was centrifuged (35,000 ×g, 4°C, 45 min), and the supernatant was used as a cell-free extract for the determination of peptide cleavage rates.
The incubation mixtures, consisting of 10 mL of a 200 mM peptide solution in 50 mM potassium phosphate buffer (pH 6.5) and 2 mL of an appropriately diluted crude extract (final protein concentration, 0.1–0.5 mg mL^-1), were incubated at 30°C. At 5 min intervals, 2 mL aliquots were withdrawn and heated at 100°C for 3 min. The resulting suspensions were centrifuged to remove the protein precipitates and the concentration of free amino acids in the supernatant was determined by the Cd-ninhydrin procedure ([Doi et al., 1981]).

[10] = test system: C. albicans isolates NF1-3 and LNF1-3; assay: Initial peptide uptake rate by isolates resistant to F2/F3; format: cell-based, Candida albicans; details: all six isolates NF1-3, LNF1-3; Figure 4
Experimental: as §1
It is therefore clear that the diminished sensitivity of all six isolates to F2 and F3 was due to the reduced uptake, most likely by permease(s) of the PTR system.

| SMILES | Uptake rate ± SD [1] | Uptake rate ± SD [2] | Uptake rate ± SD [3] | Uptake rate ± SD [4] | Uptake rate ± SD [5] | Uptake rate ± SD [6] | Uptake rate ± SD [7] | Uptake rate ± SD [8] | Velocity of proteolytic cleavage relative to F6, F7, and F11 [9] | Initial uptake rate relative to wild type SC5314 cells [10] |
| --- | --- | --- | --- | --- | --- | --- | --- | --- | --- | --- |
| CCC[C@H](NC(=O)[C@@H](N)CCCCN)C(=O)N[C@@H](Cc1ccccc1)C(=O)N[C@@H](CCSC)C(=O)N[C@@H](CC(=O)O)C(=O)N1CCC[C@H]1C(=O)O [Peptide F3, Lys-Nva-FMDP] (H-K[Nva]FMDP-OH) | 4.32 ± 0.14 nmol min^-1 (mg dry weight)^-1 | 4.08 ± 0.14 nmol min^-1 (mg dry weight)^-1 | <0.1 nmol min^-1 (mg dry weight)^-1 | 2.98 ± 0.18 nmol min^-1 (mg dry weight)^-1 | 3.23 ± 0.19 nmol min^-1 (mg dry weight)^-1 | 4.12 ± 0.15 nmol min^-1 (mg dry weight)^-1 | 4.19 ± 0.16 nmol min^-1 (mg dry weight)^-1 | 0.11 ± 0.04 nmol min^-1 (mg dry weight)^-1 | two to three times higher | lower |
| CCC[C@H](N)C(=O)N[C@@H](Cc1ccccc1)C(=O)N[C@@H](CCSC)C(=O)N[C@@H](CC(=O)O)C(=O)N1CCC[C@H]1C(=O)O [Peptide F2, Nva-FMDP] (H-[Nva]FMDP-OH) | 4.83 ± 0.11 nmol min^-1 (mg dry weight)^-1 | 4.75 ± 0.09 nmol min^-1 (mg dry weight)^-1 | <0.1 nmol min^-1 (mg dry weight)^-1 | 4.05 ± 0.18 nmol min^-1 (mg dry weight)^-1 | 4.80 ± 0.15 nmol min^-1 (mg dry weight)^-1 | 4.86 ± 0.14 nmol min^-1 (mg dry weight)^-1 | 4.78 ± 0.11 nmol min^-1 (mg dry weight)^-1 | <0.1 nmol min^-1 (mg dry weight)^-1 | two to three times higher | remarkably lower |
